pIC50: −log10 of the molar value. Each block holds one compound with its values, some of them ahead of it.
Assays:
IGF-1R = molecular target: T1, IGF-1R (Homo sapiens, UniProt P08069); assay: Cellular IGF-1R assay: capture ELISA (MSD) of receptor phosphorylation in Hek293 cells; type: cell-based; conditions: Hek293-IGF1R cells, 1 h pre-incubation, 10 min IGF stimulation, pIGF1R capture ELISA
T1 construct: expressed in transfected cells; host or cells: Hek293 (Hek293-IGF1R)
How it was run: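 IC50 from 4-parameter fit of IGF1R phosphorylation, normalised to IGF-stimulated and unstimulated controls, measured by MSD capture ELISA on lysates. Hek293-IGF1R cells in starvation medium got compound 1 h (top 10 μM, 3-fold steps, 0.1% DMSO) before a 10 min pulse of 1.0 ng/μL IGF.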

[1] = In vitro metabolic identification study with rat liver microsomes; type: in vitro ADME; conditions: for formation of the phenolic metabolite X / metabolic stability relative to ex.102 of WO02/092559: rat and human liver microsomes; for Relative peak area after incubation, Parent / Relative peak area after incubation, Phenol metabolite X: rat liver microsomes, 1 hour incubation, parent 5 μM
Description: (§1) In vitro metabolic identification studies with, Example 2 and Example 3 with human and rat liver microsomes are summarized in the table below in which the compounds were incubated for 1 hour with rat or human liver microsome preparations.
(§2) The metabolism of unlabelled compound was examined following in vitro incubations with liver microsomes from rat and human. The samples were analyzed by capillary-HPLC/MS^(n) and screened for potential metabolites of the compound.

[2] = In vitro metabolic identification study with human liver microsomes; type: in vitro ADME; conditions: 1 hour incubation, parent 5 μM
Description: as §1, §2

InsR = InsR (Homo sapiens, UniProt P06213); assay: Kinase activity test, parent compound vs phenol metabolite X; type: biochemical
Sequence of InsR (P06213 28-1382, species assumed): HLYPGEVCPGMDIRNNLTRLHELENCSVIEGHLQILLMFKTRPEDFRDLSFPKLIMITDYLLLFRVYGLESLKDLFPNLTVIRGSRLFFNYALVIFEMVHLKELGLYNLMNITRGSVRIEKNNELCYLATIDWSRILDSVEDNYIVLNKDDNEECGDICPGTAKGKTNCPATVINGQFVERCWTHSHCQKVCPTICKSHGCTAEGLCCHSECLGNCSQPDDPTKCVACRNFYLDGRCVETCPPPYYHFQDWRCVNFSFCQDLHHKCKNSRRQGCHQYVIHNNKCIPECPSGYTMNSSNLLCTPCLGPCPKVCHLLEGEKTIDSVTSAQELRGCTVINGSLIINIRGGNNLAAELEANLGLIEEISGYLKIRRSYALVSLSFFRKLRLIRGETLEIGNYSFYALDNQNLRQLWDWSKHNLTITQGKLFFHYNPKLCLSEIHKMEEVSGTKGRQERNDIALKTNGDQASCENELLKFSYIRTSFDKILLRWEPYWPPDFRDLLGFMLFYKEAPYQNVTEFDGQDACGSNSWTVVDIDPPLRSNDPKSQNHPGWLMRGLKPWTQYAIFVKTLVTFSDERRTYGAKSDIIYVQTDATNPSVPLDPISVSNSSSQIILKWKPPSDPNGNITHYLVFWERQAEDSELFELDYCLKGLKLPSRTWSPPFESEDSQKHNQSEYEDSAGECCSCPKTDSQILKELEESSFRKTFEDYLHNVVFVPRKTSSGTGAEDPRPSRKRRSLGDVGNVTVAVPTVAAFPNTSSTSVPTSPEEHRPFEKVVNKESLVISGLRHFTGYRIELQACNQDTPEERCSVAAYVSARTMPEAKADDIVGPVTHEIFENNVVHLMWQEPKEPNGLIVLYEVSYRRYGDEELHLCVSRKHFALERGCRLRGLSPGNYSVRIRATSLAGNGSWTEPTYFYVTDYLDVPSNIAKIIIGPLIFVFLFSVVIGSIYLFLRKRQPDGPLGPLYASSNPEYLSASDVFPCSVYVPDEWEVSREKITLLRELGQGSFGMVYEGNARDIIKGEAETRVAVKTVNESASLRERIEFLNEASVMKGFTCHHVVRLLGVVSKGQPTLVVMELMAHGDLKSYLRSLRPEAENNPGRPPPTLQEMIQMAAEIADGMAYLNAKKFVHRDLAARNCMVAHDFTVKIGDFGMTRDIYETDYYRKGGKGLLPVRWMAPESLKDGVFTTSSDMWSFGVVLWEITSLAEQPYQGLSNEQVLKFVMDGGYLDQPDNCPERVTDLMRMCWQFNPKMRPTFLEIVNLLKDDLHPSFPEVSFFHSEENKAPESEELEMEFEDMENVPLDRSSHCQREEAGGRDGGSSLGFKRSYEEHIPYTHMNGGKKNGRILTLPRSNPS

C-Abl = C-Abl (Homo sapiens, UniProt P00519); assay: as above; type: biochemical
Sequence of C-Abl (P00519 whole entry): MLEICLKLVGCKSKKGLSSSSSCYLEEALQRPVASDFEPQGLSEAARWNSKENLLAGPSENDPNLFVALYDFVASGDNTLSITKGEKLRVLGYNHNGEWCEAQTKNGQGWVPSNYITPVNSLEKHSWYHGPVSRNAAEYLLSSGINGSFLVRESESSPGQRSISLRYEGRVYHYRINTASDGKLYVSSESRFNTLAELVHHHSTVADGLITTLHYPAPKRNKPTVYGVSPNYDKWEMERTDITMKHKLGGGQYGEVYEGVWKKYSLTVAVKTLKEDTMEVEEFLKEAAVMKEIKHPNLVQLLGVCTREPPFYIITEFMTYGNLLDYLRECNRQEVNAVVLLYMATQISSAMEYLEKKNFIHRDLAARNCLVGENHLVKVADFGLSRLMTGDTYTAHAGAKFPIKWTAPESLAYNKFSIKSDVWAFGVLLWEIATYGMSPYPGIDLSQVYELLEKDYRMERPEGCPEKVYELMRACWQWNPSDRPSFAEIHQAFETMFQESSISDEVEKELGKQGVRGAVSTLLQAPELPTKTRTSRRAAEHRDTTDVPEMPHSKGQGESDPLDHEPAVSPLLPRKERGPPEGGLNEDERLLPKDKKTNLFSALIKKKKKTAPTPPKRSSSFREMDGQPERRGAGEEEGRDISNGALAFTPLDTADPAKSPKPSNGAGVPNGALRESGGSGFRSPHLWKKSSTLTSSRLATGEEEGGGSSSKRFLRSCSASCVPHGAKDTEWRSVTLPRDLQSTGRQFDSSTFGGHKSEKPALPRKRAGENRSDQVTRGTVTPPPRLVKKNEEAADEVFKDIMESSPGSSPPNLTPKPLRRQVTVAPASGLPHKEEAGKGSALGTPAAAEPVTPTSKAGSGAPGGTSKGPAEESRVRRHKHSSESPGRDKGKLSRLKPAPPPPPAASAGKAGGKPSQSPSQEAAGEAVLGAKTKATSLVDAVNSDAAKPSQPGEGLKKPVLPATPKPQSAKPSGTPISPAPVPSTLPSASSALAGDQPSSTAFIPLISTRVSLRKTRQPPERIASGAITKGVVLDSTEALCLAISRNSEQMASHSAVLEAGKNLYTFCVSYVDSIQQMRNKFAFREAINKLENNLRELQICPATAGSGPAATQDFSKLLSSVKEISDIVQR
Source text: (§3) In this tests, the parent compound, ex.102 of […] is compared with the corresponding phenol metabolite.

EphB4 = molecular target: T2, EphB4 (Homo sapiens, UniProt P54760); assay: as above; type: biochemical
T2 sequence (P54760 16-987): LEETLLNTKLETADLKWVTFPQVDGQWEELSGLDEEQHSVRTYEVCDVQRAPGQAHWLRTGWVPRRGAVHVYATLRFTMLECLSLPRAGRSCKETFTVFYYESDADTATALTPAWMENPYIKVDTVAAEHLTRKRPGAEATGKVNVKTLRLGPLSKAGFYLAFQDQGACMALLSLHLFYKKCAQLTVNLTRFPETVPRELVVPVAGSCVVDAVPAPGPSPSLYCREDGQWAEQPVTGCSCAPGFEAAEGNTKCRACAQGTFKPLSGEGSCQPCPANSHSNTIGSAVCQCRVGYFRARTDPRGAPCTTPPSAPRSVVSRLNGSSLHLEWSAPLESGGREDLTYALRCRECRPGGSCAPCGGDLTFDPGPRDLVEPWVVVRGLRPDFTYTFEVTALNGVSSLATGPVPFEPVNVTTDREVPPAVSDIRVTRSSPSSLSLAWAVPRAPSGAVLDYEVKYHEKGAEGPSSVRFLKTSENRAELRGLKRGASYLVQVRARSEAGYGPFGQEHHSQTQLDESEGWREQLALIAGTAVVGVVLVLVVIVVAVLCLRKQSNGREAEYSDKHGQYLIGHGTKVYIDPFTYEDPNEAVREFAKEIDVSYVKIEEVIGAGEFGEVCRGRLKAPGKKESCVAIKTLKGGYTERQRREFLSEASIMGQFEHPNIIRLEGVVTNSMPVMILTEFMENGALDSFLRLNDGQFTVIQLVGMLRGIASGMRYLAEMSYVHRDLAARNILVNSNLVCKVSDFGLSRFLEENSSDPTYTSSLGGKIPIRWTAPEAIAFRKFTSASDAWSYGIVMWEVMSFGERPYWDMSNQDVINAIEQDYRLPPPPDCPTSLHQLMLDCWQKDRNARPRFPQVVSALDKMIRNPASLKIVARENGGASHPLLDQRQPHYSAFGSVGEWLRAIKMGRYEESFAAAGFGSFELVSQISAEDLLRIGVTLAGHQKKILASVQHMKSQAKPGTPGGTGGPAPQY
Source text: as §3

RET = RET (Homo sapiens, UniProt P07949); assay: as above; type: biochemical
Sequence of RET (P07949 29-1114, species assumed): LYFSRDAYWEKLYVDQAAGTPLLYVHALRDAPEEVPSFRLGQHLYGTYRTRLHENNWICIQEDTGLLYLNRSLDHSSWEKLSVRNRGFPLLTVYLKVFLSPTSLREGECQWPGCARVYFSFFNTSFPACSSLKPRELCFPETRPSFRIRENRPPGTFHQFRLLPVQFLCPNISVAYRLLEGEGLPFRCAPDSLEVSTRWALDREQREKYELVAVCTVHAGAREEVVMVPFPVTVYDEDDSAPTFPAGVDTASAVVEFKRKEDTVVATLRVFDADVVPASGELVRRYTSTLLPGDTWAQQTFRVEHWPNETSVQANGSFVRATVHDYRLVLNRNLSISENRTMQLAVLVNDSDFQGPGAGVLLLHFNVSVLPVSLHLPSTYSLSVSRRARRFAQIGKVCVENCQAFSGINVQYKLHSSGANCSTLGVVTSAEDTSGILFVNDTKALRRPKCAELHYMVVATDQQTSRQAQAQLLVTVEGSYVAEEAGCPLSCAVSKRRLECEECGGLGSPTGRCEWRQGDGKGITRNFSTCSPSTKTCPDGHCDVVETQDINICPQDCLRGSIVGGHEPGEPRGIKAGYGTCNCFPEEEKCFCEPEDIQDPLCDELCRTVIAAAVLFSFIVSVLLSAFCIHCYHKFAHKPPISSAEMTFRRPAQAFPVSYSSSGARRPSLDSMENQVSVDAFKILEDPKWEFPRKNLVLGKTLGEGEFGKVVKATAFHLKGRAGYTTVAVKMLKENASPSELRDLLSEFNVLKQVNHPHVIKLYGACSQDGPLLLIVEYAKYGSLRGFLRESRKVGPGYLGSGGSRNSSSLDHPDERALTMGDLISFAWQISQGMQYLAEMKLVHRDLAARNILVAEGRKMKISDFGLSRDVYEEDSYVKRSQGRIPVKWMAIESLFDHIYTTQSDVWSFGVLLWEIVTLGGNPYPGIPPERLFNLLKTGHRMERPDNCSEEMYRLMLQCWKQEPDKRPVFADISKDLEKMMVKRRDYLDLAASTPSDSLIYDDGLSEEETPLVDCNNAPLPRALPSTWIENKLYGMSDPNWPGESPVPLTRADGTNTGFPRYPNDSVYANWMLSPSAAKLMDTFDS
Source text: as §3

c-src = c-src (Homo sapiens, UniProt P12931); assay: as above; type: biochemical
Source text: as §3

T1 sequence (P08069 31-1367): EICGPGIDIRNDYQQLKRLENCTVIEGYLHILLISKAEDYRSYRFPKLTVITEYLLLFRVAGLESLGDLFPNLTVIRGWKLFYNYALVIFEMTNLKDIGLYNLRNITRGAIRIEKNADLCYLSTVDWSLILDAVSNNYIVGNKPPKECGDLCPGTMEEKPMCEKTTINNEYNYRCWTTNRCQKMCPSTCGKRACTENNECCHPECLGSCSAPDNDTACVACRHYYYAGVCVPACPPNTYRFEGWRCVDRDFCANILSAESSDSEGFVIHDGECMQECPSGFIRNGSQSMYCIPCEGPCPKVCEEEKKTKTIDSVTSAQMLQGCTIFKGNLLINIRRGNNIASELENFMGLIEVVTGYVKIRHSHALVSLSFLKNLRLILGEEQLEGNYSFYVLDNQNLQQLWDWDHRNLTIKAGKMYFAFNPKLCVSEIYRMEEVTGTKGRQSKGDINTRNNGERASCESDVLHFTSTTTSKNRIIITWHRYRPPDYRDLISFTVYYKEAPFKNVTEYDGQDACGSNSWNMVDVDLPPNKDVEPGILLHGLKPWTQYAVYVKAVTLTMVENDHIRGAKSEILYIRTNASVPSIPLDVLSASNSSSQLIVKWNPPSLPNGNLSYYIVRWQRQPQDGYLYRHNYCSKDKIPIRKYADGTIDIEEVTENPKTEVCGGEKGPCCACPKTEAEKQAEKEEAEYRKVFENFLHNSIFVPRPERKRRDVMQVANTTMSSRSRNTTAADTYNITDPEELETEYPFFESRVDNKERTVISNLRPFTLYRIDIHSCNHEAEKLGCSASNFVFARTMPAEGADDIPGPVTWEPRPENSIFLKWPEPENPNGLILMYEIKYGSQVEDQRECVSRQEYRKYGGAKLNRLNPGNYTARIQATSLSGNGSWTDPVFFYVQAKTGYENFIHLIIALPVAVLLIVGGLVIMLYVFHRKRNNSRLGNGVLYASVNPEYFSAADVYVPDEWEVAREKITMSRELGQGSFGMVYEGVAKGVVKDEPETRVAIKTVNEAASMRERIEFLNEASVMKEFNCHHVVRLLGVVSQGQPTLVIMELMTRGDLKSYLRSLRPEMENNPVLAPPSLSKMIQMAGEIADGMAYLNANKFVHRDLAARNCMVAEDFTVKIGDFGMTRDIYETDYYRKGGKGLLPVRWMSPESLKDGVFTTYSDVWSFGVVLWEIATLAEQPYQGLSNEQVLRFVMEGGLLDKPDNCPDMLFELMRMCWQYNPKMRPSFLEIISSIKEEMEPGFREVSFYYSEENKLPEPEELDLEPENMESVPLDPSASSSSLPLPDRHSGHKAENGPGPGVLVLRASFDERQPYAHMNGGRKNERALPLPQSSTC

Compound: Nc1ncnc2c1c(-c1cccc(OC[C@@H]3CCCCO3)c1)cn2[C@H]1C[C@@H](CN2CCC2)C1 (single isomer, unassigned) [Example 3]
pIC50 (IGF-1R): 6.85 to 6.98
formation of the phenolic metabolite X [1]: no evidence of formation
metabolic stability relative to ex.102 of WO02/092559 [1]: Greater metabolic stability
Relative peak area after incubation, Parent [1]: 75.8%
Relative peak area after incubation, Phenol metabolite X [1]: not detected
Relative peak area after incubation, Parent [2]: 81.7%
Relative peak area after incubation, Phenol metabolite X [2]: not detected

Compound: Nc1ncnc2c1c(-c1cccc(O)c1)cn2[C@H]1C[C@@H](CN2CCC2)C1 [Phenol metabolite X, cis-3-[4-amino-7-(3-azetidin-1-ylmethyl-cyclobutyl)-7H-pyrrolo[2,3-d]pyrimidin-5-yl]-phenol]
IC50 (InsR): 3800 nM
IC50 (C-Abl): 47 nM
IC50 (EphB4): 9 nM
IC50 (RET): 8 nM
IC50 (c-src): 4 nM

Compound: Nc1ncnc2c1c(-c1cccc(OCC34CCC(CC3)O4)c1)cn2C1CC(O)(CN2CCCC2CO)C1 (single isomer, unassigned) [Example 202]
pIC50 (IGF-1R): 6.41

Compound: Nc1ncnc2c1c(-c1cccc(OCC3CCCCO3)c1)cn2[C@H]1C[C@@H](CN2CC[C@H](O)C2)C1 (stereo partly drawn) [Example 34, (S)-1-(cis-3-{4-amino-5-[3-(tetrahydro-pyran-2-ylmethoxy)-phenyl]-pyrrolo[2,3-d]pyrimidin-7-yl}-cyclobutylmethyl)-pyrrolidin-3-ol]
pIC50 (IGF-1R): 6.48

Compound: NC(=O)C1C2CCC(C2)N1CC1CC(n2cc(-c3cccc(OCC4CCCCO4)c3)c3c(N)ncnc32)C1 [Example 95, (1R,3R,45)-2-(((1s, 3S)-3-(4-amino-5-(3-((tetrahydro-2H-pyran-2-yl)methoxy)phenyl)-7H-pyrrolo[2,3-d]pyrimidin-7-yl)cyclobutyl)methyl)-2-azabicyclo[2.2.1]heptane-3-carboxamide]
pIC50 (IGF-1R): 6.66

Compound: 7-[cis-3-(N-methylcarboxy-amino-methyl)-cyclobutyl]-5-3-(7-oxa-bicyclo[2.2.1]hept-1-ylmethoxy)-phenyl]-7H-pyrrolo[2,3-d]pyrimidin-4-ylamine [Example 177]
pIC50 (IGF-1R): 6.86

Compound: Nc1ncnc2c1c(-c1cccc(OCC34CCC(CC3)O4)c1)cn2[C@H]1CC[C@@H](n2ccnc2)CC1 [Example 138, 7-((1S,4S)-4-(1H-imidazol-1-yl)cyclohexyl)-5-(3-(7-oxabicyclo[2.2.1]heptan-1-ylmethoxy)phenyl)-7H-pyrrolo[2,3-d]pyrimidin-4-amine]
pIC50 (IGF-1R): 6.62

Compound: CC(=O)N[C@H]1C[C@@H](n2cc(-c3cccc(OCC45CCC(CC4)O5)c3)c3c(N)ncnc32)C1 (relative stereo) [Example 223, N-(cis-3-{4-amino-5-[3-(7-oxa-bicyclo[2.2.1]hept-1-ylmethoxy)-phenyl]-pyrrolo[2,3-d]pyrimidin-7-yl}-cyclobutyl)-acetamide]
pIC50 (IGF-1R): 6.51

Second part, the compound after the results:

pIC50 (IGF-1R): 7.00 to 7.29
formation of the phenolic metabolite X [1]: no evidence of formation
metabolic stability relative to ex.102 of WO02/092559 [1]: Greater metabolic stability
Relative peak area after incubation, Parent [1]: 69.3%
Relative peak area after incubation, Phenol metabolite X [1]: not detected
Relative peak area after incubation, Parent [2]: 90.3%
Relative peak area after incubation, Phenol metabolite X [2]: not detected
Compound: Nc1ncnc2c1c(-c1cccc(OC[C@H]3CCCCO3)c1)cn2[C@H]1C[C@@H](CN2CCC2)C1 (single isomer, unassigned) [Example 2]

pIC50 (IGF-1R): 7.59
Compound: CC1(C)CCC(COc2cccc(-c3cn([C@H]4C[C@H](CN5CC(O)C5)C4)c4ncnc(N)c34)c2)O1 (relative stereo) [Example 48, 1-(trans-3-{4-amino-5-[3-(5,5-dimethyl-tetrahydro-furan-2-ylmethoxy)-phenyl]-pyrrolo[2,3-d]pyrimidin-7-yl}-cyclobutylmethyl)-azetidin-3-ol]

pIC50 (IGF-1R): 7.44
Compound: Nc1ncnc2c1c(-c1cccc(OC[C@@H]3CCCO3)c1)cn2[C@H]1C[C@@H](CN2CCS(=O)(=O)CC2)C1 [Example 4, cis-7-(3-[(1,1-dioxidothiomorpholin-4-yl)methyl]cyclobutyl}-5-{3-[(2S)-tetrahydrofuran-2-ylmethoxy]phenyl}-7H-pyrrolo[2,3-d]pyrimidin-4-amine]

pIC50 (IGF-1R): 7.68
Compound: CC1(OC(=O)NC[C@H]2C[C@@H](n3cc(-c4cccc(OCC56CCC(CC5)O6)c4)c4c(N)ncnc43)C2)CC1 [Example 107]

pIC50 (IGF-1R): 7.21
Compound: Nc1ncnc2c1c(-c1cccc(OCC34CCC(CC3)O4)c1)cn2[C@H]1C[C@@H](CN2CCSCC2=O)C1 [Example 106, 4-(((1S,3S)-3-(5-(3-(7-oxabicyclo[2.2.1]heptan-1-ylmethoxy)phenyl)-4-amino-7H-pyrrolo[2,3-d]pyrimidin-7-yl}-cyclobutyl)methyl)thiomorpholin-3-one]

pIC50 (IGF-1R): 7.18
Compound: Nc1ncnc2c1c(-c1cccc(OCC34CCC(CC3)O4)c1)cn2[C@H]1C[C@@]2(CNC(=O)O2)C1 [Example 169, (E)-2-{4-amino-5-[3-(7-oxa-bicyclo[2.2.1]hept-1-ylmethoxy)-phenyl]-pyrrolo[2,3-d]pyrimidin-7-yl}-5-oxa-7-aza-spiro[3.4]octan-6-one]

pIC50 (IGF-1R): 8.30
Compound: NC(=O)[C@@H]1CCCN1C[C@H]1C[C@H](n2cc(-c3cccc(OCC45CCC(CC4)O5)c3)c3c(N)ncnc32)C1 [Example 78, (S)-1-(trans-3-{4-amino-5-[3-(7-oxa-bicyclo[2.2.1]hept-1-ylmethoxy)-phenyl]-pyrrolo[2,3-d]pyrimidin-7-yl}cyclobutylmethyl)-pyrrolidine-2-carboxylic acid amide]

pIC50 (IGF-1R): 7.48
Compound: NC(=O)[C@@H]1CCCN1C[C@]1(O)C[C@@H](n2cc(-c3cccc(OCC45CCC(CC4)O5)c3)c3c(N)ncnc32)C1 [Example 198, (S)-(Z)-1-(3-(4-Amino-5-[3-(7-oxa-bicyclo[2.2.1]hept-1-ylmethoxy)-phenyl]-pyrrolo[2,3-d]pyrimidin-7-yl}-1-hydroxy-cyclobutylmethyl)-pyrrolidine-2-carboxylic acid amide]

— patent publication US20120165310A1, “ETHER DERIVATIVES OF BICYCLIC HETEROARYLS” (NOVARTIS AG, priority 2009, published 2012)
